Experimental data from patent US10934297B2, “5-heteroaryl substituted indazole-3-carboxamides and preparation and use thereof” (Samumed, LLC, priority 2018, dated 2021).

Key:
GSK3β kinase = GSK3β kinase (Homo sapiens (Human), UniProt P49841); assay: GSK3β kinase assay (Ser/Thr 09 peptide Z-lyte FRET); type: biochemical; details: read-out: EC50 (method: IC50)
How it was run: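 Non-radioactive Z-lyte FRET read-out, kinase activity expressed as coumarin/fluorescein emission ratio. Compounds incubated with the reaction mixture one hour at room temperature in duplicate, then development buffer added for another hour. IC50 from non-linear regression of dose-response curves.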

DYRK1A kinase = DYRK1A kinase (Homo sapiens (Human), UniProt Q13627); assay: DYRK1A kinase assay (Ser/Thr 18 peptide Z-lyte FRET); type: biochemical; details: read-out: EC50 (method: IC50)
How it was run: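 This Z-lyte FRET assay reads the coumarin/fluorescein emission ratio. Compounds were incubated with the reaction mixture for 1 h at room temperature, followed by development reagent for a further 1 h at room temperature, in duplicate.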

[1] = test system: primary human fibroblasts derived from IPF patients (LL29 cells); assay: Inhibition of the fibrotic process: αSMA staining in TGF-β1 treated LL29 fibroblasts; type: cell-based; details: Homo sapiens, Fibroblast, 96 h; LL29 cells, TGF-β1 20 ng/mL, 4 days, % αSMA positive cells
How it was run: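 LL29 fibroblasts from IPF patients, in F12 medium with 1% FBS, treated with TGF-β1 plus compound; TGF-β1 with DMSO as positive control, DMSO alone as negative control. After 4 days' incubation, SYTOX green nucleic acid stain added at 1 μM final, 30 min at room temperature.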

IL-6 = IL-6 inhibition in LPS-stimulated human peripheral blood mononuclear cells (HTRF); type: cell-based; details: Homo sapiens, PBMC; for EC50: huPBMCs, LPS 50 ng/mL, 22 hours, IL-6 HTRF; for inhibition at 10 µM: read-out: percent inhibition at 10 μM
How it was run: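 Fresh human PBMCs at 1×10e6 cells/mL in RPMI/1% FBS were stimulated with 50 ng/mL E. coli 0111:B4 LPS added 2 h after compound, then incubated 22 h at 37° C. Secreted IL-6 was measured by HTRF (665/620 nm ratio) after 3 h at room temperature. EC50 was taken from activity normalized to DMSO-treated cells.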

[2] = test system: Wnt activity (Sp5-Luc reporter in SW480 cells); assay: Screening assay for Wnt activity: Sp5-Luc reporter gene assay in SW480 colon carcinoma cells; type: cell-based, human; details: Homo sapiens, 36 to 48 hours
How it was run: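 SW480 colon carcinoma cells stably carrying a lentiviral luciferase reporter driven by an Sp5 promoter with eight TCF/LEF sites, plated at 4,000 cells/well in DMEM with 1% FBS. Compound exposure for 36–48 h at 37 °C, then luminescence read. Signals normalized to DMSO; EC50 from four-parameter nonlinear fit.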

[3] = test system: primary human mesenchymal stem cells (hMSCs); assay: Tenocyte differentiation assay (SCXA-positive cells) in hMSCs; type: cell-based; details: for EC50: Homo sapiens, Mesenchymal stem cells, 96 h, hMSCs, 4 days, SCXA positive cells; for percent in parentheses under EC50 >100: given for EC50 >100 μM, meaning not defined in this example
Text: Representative compounds were screened using primary human mesenchymal stem cells (hMSCs) to determine their ability to induce tenocyte differentiation (process by which tendon is developed).
Primary human mesenchymal stem cells (hMSCs) were purchased from Lonza (Walkersville, Md.) and expanded in Mesenchymal Stem Cell Growth Media (Lonza). Cells between passage 3 and 6 were used for the experiments.
Cells were fixed using 4% formaldehyde (Electron Microscopy Sciences), and stained with anti-Sclerasis (anti-SCXA) antibodies (Abgent, San Diego, Calif.) [Webb S., et.al., Retinoic acid receptor signaling preserves tendon stem cell characteristics and prevents spontaneous differentiation in vitro, Stem Cell Research & Therapy 2016, 7:45] overnight at 4° C. […] Number of cells positive for SCXA in each well was quantified using the CellInsight CX5. Data was normalized to the average of 12 DMSO treated wells on the same plate using Dotmatics Studies module. The normalized averages (fold change over DMSO) of 3 replicate wells for each compound concentration were calculated. Due to solubility limitations of some of the compounds, values for higher doses were manually corrected and curve fitting and EC50 determinations were performed using Dotmatics Studies.

[4] = test system: SW480 colon carcinoma cells; assay: Cell viability assay (CellTiter-Glo) in SW480 colon carcinoma cells; type: cell-based, human; details: Homo sapiens, 96 h, four days
How it was run: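 SW480 cells stably carrying an Sp5-promoter luciferase reporter were plated at 2,000 cells/well in DMEM with 1% FBS and treated with compound for four days at 37 °C. Viability was read as ATP luminescence with CellTiter-Glo after about 12 min; DMSO-treated wells served as controls.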

Sequence of GSK3β kinase (P49841 whole entry): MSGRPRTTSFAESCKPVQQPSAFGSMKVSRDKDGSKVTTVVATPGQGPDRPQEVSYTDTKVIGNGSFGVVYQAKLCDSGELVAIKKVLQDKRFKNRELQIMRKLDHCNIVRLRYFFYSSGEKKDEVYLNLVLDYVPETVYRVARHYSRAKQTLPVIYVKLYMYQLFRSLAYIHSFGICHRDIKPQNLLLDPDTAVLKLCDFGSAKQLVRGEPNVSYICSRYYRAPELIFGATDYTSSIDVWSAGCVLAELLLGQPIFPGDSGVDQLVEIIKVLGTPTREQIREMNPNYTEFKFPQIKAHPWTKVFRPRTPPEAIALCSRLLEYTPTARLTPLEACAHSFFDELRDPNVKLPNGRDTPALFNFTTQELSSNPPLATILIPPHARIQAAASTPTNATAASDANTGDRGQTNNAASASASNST

Compound | IC50 (GSK3β kinase) | IC50 (DYRK1A kinase) | EC50 (IL-6) | EC50 [2] | EC50 [3] | EC50 [4] | percent in parentheses under EC50 >100 [3] | EC50 [1] | inhibition at 10 µM (IL-6)
Cn1cc(-c2cc(F)c3[nH]nc(C(=O)NC4CCC(F)(F)CC4)c3c2)cn1 [Compound 16, N-(4,4-Difluorocyclohexyl)-7-fluoro-5-(1-methyl-1H-pyrazol-4-yl)-1H-indazole-3-carboxamide] | 41 nM | 378 nM | > 10000 nM | > 10000 nM | 1380 nM | 7890 nM | – | 1010 nM | 37.5%
CC(C)CN1CC[C@H](NC(=O)c2n[nH]c3ccc(-c4cnn(C)c4)cc23)[C@H](F)C1 [Compound 30, N-((3R,4S)-3-Fluoro-1-isobutylpiperidin-4-yl)-5-(1-methyl-1H-pyrazol-4-yl)-1H-indazole-3-carboxamide] | 61 nM | 12 nM | > 10000 nM | > 10000 nM | 1470 nM | > 10000 nM | – | > 10000 nM | –
CC(C)CN1CC[C@H](NC(=O)c2n[nH]c3cc(F)c(-c4cnn(C)c4)cc23)[C@@H](F)C1 [Compound 34, 6-Fluoro-N-((3S,4S)-3-fluoro-1-isobutylpiperidin-4-yl)-5-(1-methyl-1H-pyrazol-4-yl)-1H-indazole-3-carboxamide] | 50 nM | 16 nM | 3110 nM | > 10000 nM | 1320 nM | 1840 nM | – | 439 nM | –
CC(C)CN1CC[C@H](NC(=O)c2n[nH]c3c(F)cc(-c4cnn(C)c4)cc23)[C@@H](F)C1 [Compound 35, 7-Fluoro-N-((3S,4S)-3-fluoro-1-isobutylpiperidin-4-yl)-5-(1-methyl-1H-pyrazol-4-yl)-1H-indazole-3-carboxamide] | 157 nM | 261 nM | > 10000 nM | 345 nM | 2070 nM | 8280 nM | – | 288 nM | 9.2%
Cc1ncc(-c2ccc3[nH]nc(C(=O)Nc4ccc(OC5CCN(C)CC5)cc4)c3c2)s1 [Compound 82, N-(4-((1-Methylpiperidin-4-yl)oxy)phenyl)-5-(2-methylthiazol-5-yl)-1H-indazole-3-carboxamide] | 41 nM | 7 nM | 3930 nM | 1460 nM | > 100000 nM | 1250 nM | (2.9%) | 288 nM | –
CN1CCC(n2cc(-c3ccc4[nH]nc(C(=O)Nc5ccc(OC(F)F)nc5)c4c3)cn2)CC1 [Compound 88, N-(6-(Difluoromethoxy)pyridin-3-yl)-5-(1-(1-methylpiperidin-4-yl)-1H-pyrazol-4-yl)-1H-indazole-3-carboxamide] | 774 nM | 16 nM | 8780 nM | 435 nM | 2550 nM | 338 nM | – | 624 nM | –
CC(C)CN1CC[C@H](NC(=O)c2n[nH]c3ccc(-c4cnn(C5CC5)c4)cc23)[C@@H](F)C1 [Compound 99, 5-(1-Cyclopropyl-1H-pyrazol-4-yl)-N-((3 S,4S)-3-fluoro-1-isobutylpiperidin-4-yl)-1H-indazole-3-carboxamide] | 68 nM | 813 nM | 3280 nM | 840 nM | 2830 nM | 5180 nM | – | 855 nM | –
Cc1ncc(-c2ccc3[nH]nc(C(=O)N[C@H]4CCN(CC(C)C)C[C@@H]4F)c3c2)n1C [Compound 100, 5-(1,2-Dimethyl-1H-imidazol-5-yl)-N-((3 S,4 S)-3-fluoro-1-isobutylpiperidin-4-yl)-1H-indazole-3-carboxamide] | 43 nM | 46 nM | > 10000 nM | 1020 nM | 1880 nM | 8020 nM | – | 2360 nM | 5.5%

Second part, led by results:

IC50 (GSK3β kinase) | IC50 (DYRK1A kinase) | EC50 (IL-6) | EC50 [2] | EC50 [3] | EC50 [4] | percent in parentheses under EC50 >100 [3] | Compound | EC50 [1] | inhibition at 10 µM (IL-6)
86 nM | 408 nM | > 10000 nM | > 10000 nM | > 100000 nM | > 10000 nM | (33.0%) | Cn1cc(-c2cc(F)c3[nH]nc(C(=O)NC4CCN(CC(F)F)CC4)c3c2)cn1 [Compound 101, N-(1-(2,2-Difluoroethyl)piperidin-4-yl)-7-fluoro-5-(1-methyl-1H-pyrazol-4-yl)-1H-indazole-3-carboxamide] | > 10000 nM | 14.1%
14 nM | 40 nM | 6850 nM | 685 nM | 1300 nM | > 10000 nM | – | Cn1cc(-c2ccc3[nH]nc(C(=O)NCC(F)(F)CN4CCCC4)c3c2)cn1 [Compound 106, N-(2,2-Difluoro-3-(pyrrolidin-1-yl)propyl)-5-(1-methyl-1H-pyrazol-4-yl)-1H-indazole-3-carboxamide] | 795 nM | –
41 nM | 21 nM | 1930 nM | 3060 nM | 14000 nM | 1870 nM | – | Cn1cc(-c2cc(F)c3[nH]nc(C(=O)Nc4ccc(CN5CCCC5)cc4)c3c2)cn1 [Compound 119, 7-Fluoro-5-(1-methyl-1H-pyrazol-4-yl)-N-(4-(pyrrolidin-1-ylmethyl)phenyl)-1H-indazole-3-carboxamide] | 315 nM | –
38 nM | 2 nM | 948 nM | 205 nM | > 100000 nM | 380 nM | (37.4%) | CN1CCC(Oc2ccc(NC(=O)c3n[nH]c4ccc(-c5cnn(C)c5)cc34)cc2)CC1 [Compound 122, 5-(1-Methyl-1H-pyrazol-4-yl)-N-(4-((1-methylpiperidin-4-yl)oxy)phenyl)-1H-indazole-3-carboxamide] | 2640 nM | –
23 nM | 1 nM | 989 nM | 140 nM | 315 nM | 170 nM | – | CN1CCC(Oc2ccc(NC(=O)c3n[nH]c4ccc(-c5cnn(C)c5)cc34)cn2)CC1 [Compound 124, 5-(1-Methyl-1H-pyrazol-4-yl)-N-(6-((1-methylpiperidin-4-yl)oxy)pyridin-3-yl)-1H-indazole-3-carboxamide] | 101 nM | –
278 nM | 8 nM | 3520 nM | 355 nM | > 100000 nM | 664 nM | (12.3%) | CN1CCC(n2cc(-c3ccc4[nH]nc(C(=O)Nc5cncc(F)c5)c4c3)cn2)CC1 [Compound 125, N-(5-Fluoropyridin-3-yl)-5-(1-(1-methylpiperidin-4-yl)-1H-pyrazol-4-yl)-1H-indazole-3-carboxamide] | 599 nM | –
237 nM | 9 nM | 5780 nM | 335 nM | 2590 nM | 1530 nM | – | CN1CCC(n2cc(-c3cc4c(C(=O)Nc5cncc(F)c5)n[nH]c4cc3F)cn2)CC1 [Compound 126, 6-Fluoro-N-(5-fluoropyridin-3-yl)-5-(1-(1-methylpiperidin-4-yl)-1H-pyrazol-4-yl)-1H-indazole-3-carboxamide] | 2450 nM | –
245 nM | 4 nM | 786 nM | 100 nM | 2490 nM | 93 nM | – | Cc1ncc(NC(=O)c2n[nH]c3cc(F)c(-c4cnn(C5CCN(C)CC5)c4)cc23)s1 [Compound 127, 6-Fluoro-5-(1-(1-methylpiperidin-4-yl)-1H-pyrazol-4-yl)-N-(2-methylthiazol-5-yl)-1H-indazole-3-carboxamide] | 48 nM | –
